pKd: −log10 of the molar value. [invdT] = inverted (3'-3') thymidine
What was measured:
[1] = target: PDGF BB (Homo sapiens, UniProt P01127); assay: Binding of ARC124 to PDGF BB
[2] = target: PDGF AB (Homo sapiens, UniProt P01127); assay: Binding of ARC124 to PDGF AB
[3] = test system: HT29 colon cancer xenograft; assay: HT29 colon cancer xenograft model; type: in vivo, Nu/Nu mice; settings: GLEEVEC 50 mg/kg orally BID Qd5 + irinotecan 150 mg/kg weekly vs irinotecan alone
[4] = test system: HCT-116 tumor; settings: irinotecan 100 mg/kg plus Gleevec 50 mg/kg orally twice a day
Description: Each group was assigned to a treatment regimen as follows. […] Doses were adjusted for changing body weight twice per week and all mice were dosed with vehicle or aptamer at 10 ml of dosing solution per kg body weight given intraperitoneally. […] Groups 3, 10 and 11 were dosed with vehicle intraperitinoneally once per day from days 8-25. Groups 3, 5, 7, 8, and 9 were dosed on day 11, 18 and 25 with irintoecan (100 mg/kg, intraperitoneally). […] Group 11 was dosed on day 11 and 25 with irintoecan (100 mg/kg, intraperitoneally) and twice a day with imatinib at 50 mg/kg given orally on days 8-12 and 23-25.
The aptamer was allowed to come to room temperature for an hour before dosing. Unused material was stored at 4° C. for use the next day. Normal saline for the vehicle control was sterile filtered into sample vials and stored in the same manner as the aptamer dosing solutions. Aptamer and vehicle dosing solutions were coded so that the personnel dosing were blinded from their identity.

[5] = test system: LS174T colon cancer xenograft; settings: Monday through Friday
Text: Experimental overview. Human HT-29 or LS174T colon cancer xenotransplants were established in athymic nude mice (Nu/Nu mice, Charles River Labs, Wilmington, Mass.) by injecting mice with 1×10^7 HT29 cells (ATCC, Manassas, Va.), or 2×10^6 LS174T cells (ATCC Manassas, Va.) sub-cutaneously and allowing the tumors to grow for 5 days. On day 5, two dimensional measurements of the established tumors were taken using a digital caliper. Once tumor measurements were taken, the mice were randomized into groups such that the average tumor size was the same in each group. […]
A third experiment (Experiment 3) was designed to test ARC308/irinotecan and GLEEVEC™/irinotecan dosing regimens in a colon cancer xenotransplant model using human colon carcinoma cell line LS174T (ATCC). […] ARC308 was dosed via intraperitoneal delivery at 50 mg/kg once daily, and GLEEVEC™ was dosed at 50 mg/kg once daily, Monday through Friday. ARC308 prevents PDGF-BB from binding the PDGF receptor; this molecule has a 30K PEG attached. […] The results are statistically significant (two tailed students T-test).
An efficacy analysis of three treatment groups in this study is shown in Table 10 in terms of log cell kill and log cell kill net. Log cell kill is the log(base10) of the number of tumor cells before treatment divided by the number of cells after treatment. […] A fourth experiment (Experiment 4) was designed to further test ARC308/irinotecan dosing regimens in a colon cancer xenotransplant model using human colon carcinoma cell line LS174T (ATCC). […]

PDGF BB, sequence (P01127 82-190 limits assumed): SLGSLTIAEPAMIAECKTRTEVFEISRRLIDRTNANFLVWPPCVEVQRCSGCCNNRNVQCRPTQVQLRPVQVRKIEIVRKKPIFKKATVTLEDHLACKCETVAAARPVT
PDGF AB, sequence (P01127 82-190 limits assumed, other chains not shown): as the sequence (P01127 82-190 limits assumed) above

| Molecule | pKd [1] | pKd [2] | efficacy of irinotecan (rate of tumor growth) [3] | mice dead by day 17 [4] | tolerability of dosing regimen ([5]; Experiment 2: GLEEVEC 100 mg/kg once daily, P.O.) | efficacy of irinotecan (rate of tumor growth) ([5]; Experiment 3: GLEEVEC 50 mg/kg once daily, P.O + irinotecan) |
| --- | --- | --- | --- | --- | --- | --- |
| 5′ CACAGGCTACGGCACGTAGAGCATCACCATGATCCTGTG-3′InvdT (SEQ ID NO:11) (DNA, 3' [invdT], backbone not given here) [ARC124] | ~10.00 | ~10.00 |  |  |  |  |
| Cc1ccc(NC(=O)c2ccc(CN3CCN(C)CC3)cc2)cc1Nc1nccc(-c2cccnc2)n1 [GLEEVEC™, imatinib, reference compound] |  |  | enhanced the efficacy of irinotecan treatment | 4 of 12 | made the animals moribund | did not enhance the efficacy of Irinotecan |
